In test [1] the test system is Mycolicibacterium smegmatis. Briefly: Antimicrobial activity against Mycobacterium smegmatis MC2 5089 harboring pYUB1062 plasmid overexpressing Mycobacterium tuberculosis Rv1484 InhA gene by broth microdilution method. It is filed as functional. (Broth dilution looks for growth in wells or tubes with falling amounts of substance.)
The test system of test [2] is Mycolicibacterium smegmatis. Briefly: Antimicrobial activity against Mycobacterium smegmatis MC2 5097 harboring pYUB1062 plasmid overexpressing Mycobacterium tuberculosis Rv2763c DfrA gene by broth microdilution method. It is filed as functional.
The test system of test [3] is Mycolicibacterium smegmatis. The experiment in a line: Antimicrobial activity against Mycobacterium smegmatis MC2 4517 harboring pYUB1062 plasmid overexpressing Mycobacterium tuberculosis Rv3248c SahH gene by broth microdilution method. It is filed as functional.
The test system of test [4] is Mycolicibacterium smegmatis. The experiment in a line: Antimicrobial activity against Mycobacterium smegmatis MC2 4517 harboring pYUB1062 plasmid overexpressing Mycobacterium tuberculosis Rv0753c MmsA gene by broth microdilution method. It is filed as functional.
For test [5], the system named is Mycolicibacterium smegmatis. The experiment in a line: Antimicrobial activity against Mycobacterium smegmatis MC2 4517 harboring pYUB1062 plasmid overexpressing Mycobacterium tuberculosis Rv1187 RocA gene by broth microdilution method. It is filed as functional.
Test [6] deals with Mycolicibacterium smegmatis. The experiment in a line: Antimicrobial activity against Mycobacterium smegmatis MC2 4517 harboring pYUB1062 plasmid overexpressing Mycobacterium tuberculosis Rv0155 PntAA gene by broth microdilution method. It is filed as functional.
Test [7] relates to Mycolicibacterium smegmatis. Briefly: Antimicrobial activity against Mycobacterium smegmatis MC2 4517 harboring pYUB1062 plasmid overexpressing Mycobacterium tuberculosis Rv2623 universal stress protein gene by broth microdilution method. It is filed as functional.
Test [8] concerns Mycolicibacterium smegmatis. The experiment in a line: Antimicrobial activity against Mycobacterium smegmatis MC2 4517 harboring pYUB1062 plasmid overexpressing Mycobacterium tuberculosis Rv1996 universal stress protein gene by broth microdilution method. It is filed as functional.
In test [9] the test system is Mycolicibacterium smegmatis. The experiment in a line: Antimicrobial activity against Mycobacterium smegmatis MC2 4517 harboring pYUB1062 plasmid overexpressing Mycobacterium tuberculosis Rv0468 FadB2 gene by broth microdilution method. It is filed as functional.
In test [10] the test system is Mycolicibacterium smegmatis. The experiment in a line: Antimicrobial activity against Mycobacterium smegmatis MC2 4517 harboring pYUB1062 plasmid overexpressing Mycobacterium tuberculosis Rv2691 CeoB/TrKA gene by broth microdilution method. It is filed as functional.
In test [11] the test system is Mycolicibacterium smegmatis. The experiment in a line: Antimicrobial activity against Mycobacterium smegmatis MC2 4517 harboring pYUB1062 plasmid overexpressing Mycobacterium tuberculosis Rv0091 Mtn/Sah gene by broth microdilution method. It is filed as functional, organism-based.
The subject of test [12] is Mycolicibacterium smegmatis. The experiment in a line: Antimicrobial activity against Mycobacterium smegmatis MC2 4517 harboring pYUB1062 plasmid overexpressing Mycobacterium tuberculosis Rv2858c Aldc gene by broth microdilution method. It is filed as functional.
The test system of test [13] is Mycolicibacterium smegmatis. The experiment in a line: Antimicrobial activity against Mycobacterium smegmatis MC2 4517 harboring pYUB1062 plasmid overexpressing Mycobacterium tuberculosis Rv1059 unknown gene by broth microdilution method. It is filed as functional.
Test [14] has as its system Mycolicibacterium smegmatis. Briefly: Antimicrobial activity against Mycobacterium smegmatis MC2 4517 harboring pYUB1062 plasmid overexpressing Mycobacterium tuberculosis Rv0926c unknown gene by broth microdilution method. It is filed as functional.
Test [15] relates to Mycolicibacterium smegmatis. Briefly: Antimicrobial activity against Mycobacterium smegmatis MC2 4517 harboring pYUB1062 plasmid overexpressing Mycobacterium tuberculosis Rv3777 probable oxidoreductase gene by broth microdilution method. It is filed as functional.
Test [16] has as its system Mycolicibacterium smegmatis. The experiment in a line: Antimicrobial activity against Mycobacterium smegmatis MC2 4517 harboring pYUB1062 plasmid overexpressing Mycobacterium tuberculosis Rv2971 probable oxidoreductase gene by broth microdilution method. It is filed as functional, organism-based.
Test [17] relates to Mycolicibacterium smegmatis. Briefly: Antimicrobial activity against Mycobacterium smegmatis MC2 4517 harboring pYUB1062 plasmid overexpressing Mycobacterium tuberculosis Rv2766 FabG5 gene by broth microdilution method. It is filed as functional.
In test [18] the test system is Mycolicibacterium smegmatis. Briefly: Antimicrobial activity against Mycobacterium smegmatis MC2 4517 harboring pYUB1062 plasmid overexpressing Mycobacterium tuberculosis Rv2671 RibD gene by broth microdilution method. It is filed as functional.
Test [19] deals with Mycobacterium tuberculosis. Briefly: Antimicrobial activity against Mycobacterium tuberculosis H37Rv harboring pMV261::dfrA plasmid by MTT assay. It is filed as functional, organism-based.
Test [20] has as its system Mycobacterium tuberculosis. Briefly: Antimicrobial activity against Mycobacterium tuberculosis H37Rv harboring pMV261::InhA plasmid by MTT assay. It is filed as functional, organism-based. (Tetrazolium assays rely on reduction of a dye to a coloured formazan, in cell work by metabolically active cells.)
In test [21] the test system is Mycobacterium tuberculosis. Briefly: Ratio of MIC for Mycobacterium tuberculosis H37RV harboring pMV261::InhA plasmid to MIC for wild-type Mycobacterium tuberculosis H37Rv. It is filed as functional.

Values after ≈ are worked out from the molar mass of the structure shown. Active and inactive are the calls of the source.

As usually defined, the MIC is the smallest concentration in the dilution series that meets the test's criterion for growth inhibition. `CCc1cc(C(N)=S)ccn1` [ETHIONAMIDE]: the MIC amounted to 150 µg/mL (≈ 902 µM) in test [1]; 9.4 µg/mL (≈ 56.5 µM) in [2]; 9.4 µg/mL (≈ 56.5 µM) in [3]; 9.4 µg/mL (≈ 56.5 µM) in [4]; 9.4 µg/mL (≈ 56.5 µM) in [5]; 9.4 µg/mL (≈ 56.5 µM) in [6]. Moreover, the MIC in test [7], in [8], in test [9], in test [10], in test [12] and in test [13] was 9.4 µg/mL (≈ 56.5 µM) throughout. Also, the minimum inhibitory concentration (MIC) in test [14], in test [15], in test [17] and in [18] was 9.4 µg/mL (≈ 56.5 µM) in each case. Further, the MIC entry in [11] and in [16] was “inactive” throughout.

For the compound `NNC(=O)c1ccncc1` [ISONIAZID], the MIC in test [1] came to 300 µg/mL (≈ 2190 µM); in test [2] it was 4.7 µg/mL (≈ 34.3 µM); in test [3], 4.7 µg/mL (≈ 34.3 µM); in [4], 4.7 µg/mL (≈ 34.3 µM); in test [5], 4.7 µg/mL (≈ 34.3 µM); in test [6], 4.7 µg/mL (≈ 34.3 µM). Moreover, the MIC in test [7], in test [8], in [9], in test [10], in test [12] and in test [13] was 4.7 µg/mL (≈ 34.3 µM) each time. Also, the minimal inhibitory concentration (MIC) in [14], in test [15], in test [17] and in test [18] was 4.7 µg/mL (≈ 34.3 µM) each time. For the same compound, the MIC entry in test [11] and in [16] was “inactive” in each case. Further, in test [19], the outcome was Active. For the same compound, the result in test [20] was inactive. Moreover, the Ratio in [21] is listed as 20.

The values are drawn from ChEMBL document CHEMBL1671707, “Mycobacterium tuberculosis dihydrofolate reductase is not a target relevant to the antitubercular activity of isoniazid” (Antimicrob Agents Chemother, 2010).
